According to patent US20210386754A1, “COMPOSITIONS AND METHODS FOR TREATING ATHEROSCLEROTIC VASCULAR DISEASE” (AUGUSTA UNIVERSITY RESEARCH INSTITUTE, INC., priority 2020, published 2021):
Entries after “also recorded” stand apart in the source; their conditions may differ.

Legend:
RAW 264.7 macrophages [1] = assay: Cell viability assay, LIVE/DEAD Fixable Far Red dye; type: cell-based; details: EIPA 25 μM, 1 hr, then PMA 4 hours
Protocol: Cell viability assay: RAW 264.7 macrophages were plated in 24 well plates at a density of 1×10^6 cells/mL. Twenty four hours later, macrophages were pre-incubated with vehicle or EIPA (25 μM, 1 hr) and treated with PMA (1 μM, 4 hrs). Cells were fixed in 2% PFA, resuspended in FACS buffer (2% BSA and 0.01% sodium azide in PBS), and stained with the LIVE/DEAD™ Fixable Far Red dye to identify live cells. Fluorescence intensity was measured using the FL4 channel (Ex: 650 nm, Em: 660 nm).

[2] = tested on: CD36-/-/SR-A-/- BMDM overexpressing HRasG12V; assay: Ras (HRasG12V)-induced ox-/ac-LDL internalization, Nile Red FACS; type: cell-based, mouse; details: EIPA 25 μM, 1 hr; 50 μg/mL ox-LDL or ac-LDL, 24 hr
Protocol: (§1) Foam cell formation: THP-1 macrophages or bone marrow-derived macrophages were treated with vehicle, known macropinocytosis stimulators (PMA 1 μM, M-CSF 100 ng/mL or PDGF 200 ng/mL)+/− macropinocytosis inhibitors (imipramine 10 μM or EIPA 25 μM; 1 hour pre-incubation) in the presence of nLDL, ox-LDL, or ac-LDL ([…]) for 24 hours. Cells were fixed in 2% PFA and stained with Nile Red (50 ng/mL) for 7 min. Fluorescence intensity was measured using the FL3 channel for Nile Red (Ex: 488 nm, Em: 670 nm).
HRasG12V mutant adenovirus (AD-HRasG12V) and control adenovirus (AD-GFP) were obtained from Dr. Brian Stansfield. Adenovirus multiplicity of infection (MOI) was calculated according to the OD260 of the adenovirus. Macrophages grown at 60-70% confluence were incubated in 500 μl basal medium containing Ad-GFP or Ad-HRasG12V adenovirus at 200 MOI (multiplicity of infection). After 4 hours, media was replaced with fresh complete tissue culture medium for a continuous culture. Cells were treated as indicated within 48 hours after viral transfection and collected for flow cytometry. Overexpression of adenovirus was confirmed by measuring GFP fluorescence. Fluorescence intensity was measured using the FL1 channel GFP (Ex: 488 nm, Em: 530 nm).

RAW 264.7 macrophages [3] = assay: Measurement of cholesterol efflux (DiI); type: cell-based; details: EIPA 25 μM, 1 hour
Protocol: RAW 264.7 macrophages were pretreated with vehicle or EIPA (25 μM, 1 hour) and incubated with PMA (1 μM) in the presence or absence of Dil-LDL (50 μg/mL) at 37° C. for 24 h. Cells were washed 3 times with PBS, RPMI-1640 medium containing 1% FBS was added and cells incubated for another 24 hours. Finally, the medium was collected and Dil fluorescence intensity in the media was measured using a CLARIOstar multi-mode microplate reader.

[4] = tested on: macrophages (SR-mediated ox-LDL uptake); assay: SR-mediated ox-LDL uptake; type: cell-based; details: EIPA 25 μM, 1 hr; ox-LDL 50 μg/ml
Protocol: as §1

[5] = tested on: THP-1 monocytes on human aortic endothelial cells; assay: Monocyte adhesion assay; type: cell-based; details: EIPA 25 μM; HAEC TNFα 10 ng/ml, 4 hr
Protocol: Adhesion studies were performed using the human monocyte cell line THP-1. Vehicle- or EIPA (25 μM, 24 hours)-treated THP-1 monocytes were labeled using Vybrant™ CFDA SE Cell Tracer Kit (ThermoFisher). Human aortic endothelial cell monolayers grown on coverslips in a 24-well plate were treated with vehicle (PBS) or TNFα (10 ng/ml) for 4 hours. Endothelial cells were labeled with Cell Tracker™ Deep Red Dye (ThermoFisher). Fifty microliter of THP-1 monocyte suspension containing 1×10^6 cells was added to each well of endothelial cells, and the plates were gently agitated and placed in a cell culture incubator for 1 hour. At the end of the incubation period, the monolayer was gently washed three times with cold PBS. After the final wash, coverslips were stained with Hoechst 33342 (ThermoFisher) and mounted onto slides using mounting medium. Fluorescent signals were detected using a Zeiss 780 upright confocal microscopy. Quantification was completed with Image-Pro Plus software (Media Cybemetics, Bethesda, Md., USA).

THP-1 macrophages = assay: Foam cell formation / nLDL macropinocytosis, Nile Red FACS; type: cell-based, human; details: EIPA 25 μM, 1 hr pre-incubation; nLDL 50 μg/ml
Protocol: Flow cytometry experiments were performed using the BD Accuri C6 flow cytometer using a standard protocol.
as §1

RAW 264.7 macrophages [6] = assay: Caveolin-mediated endocytosis of Alexa Fluor 488-albumin; type: cell-based; details: EIPA 25 μM, 1 hr; AF488-albumin 1 μg/ml
Protocol: Clathrin- and caveolin-mediated endocytosis: Receptor-mediated uptake of FITC-transferrin (1 μg/mL; clathrin-mediated endocytosis) and Alexa Fluor 488-albumin ([…]; caveolin-mediated endocytosis) was investigated in RAW 264.7 macrophages following their incubation with ±EIPA (25 μM; 1 hour pre-incubation). Fluorescence intensity was measured using the FL1 channel for FITC and Alexa Fluor 488 (Ex: 488 nm, Em: 530 nm).

ApoE-/- mice = assay: Atherosclerosis model: ApoE-/- mice, partial LCA ligation, Western diet; type: in vivo, mouse; details: male ApoE-/- mice, Western diet 4 weeks, EIPA via subcutaneously implanted minipump
[7] = tested on: F4/80+ macrophages of atherosclerotic ApoE-/- aorta; assay: In vivo DiI-nLDL uptake by macrophages of atherosclerotic arteries; parameters: species or system mouse; details: EIPA 25 mg/kg/day, i.p. for 3 days; DiI-nLDL 100 μg retro-orbitally; 12 weeks Western diet
Protocol: Isolation of macrophages from atherosclerotic arteries: 8-10-week-old ApoE^−/− mice were fed a Western diet for 12 weeks. Mice were treated with vehicle or EIPA (25 mg/kg/day, i.p.) for 3 days. On the day of sacrifice, mice were retro-orbitally injected with vehicle or 100 μg Dil-nLDL. After 4 hours, mice were anaesthetized and perfused with ice-cold PBS for 5 min and the entire thoracic aorta with LCA was isolated. Following removal of the adventitia, macrophages were isolated using the Neonatal Heart Dissociation Kit (Miltenyi Biotech.) and CD11b microbeads (Miltenyi Biotech.). Cells were stained with anti-F4/80-APC (clone BM8) or IgG control antibodies (Biolegend). Dil fluorescence was measured in F4/80-positive macrophages [Dil (Ex: 549 nm, Em: 565 nm) and APC (Ex: 640 nm, Em: 670 nm)].

Structure (SMILES): CCN(c1nc(N)c(C(=O)N=C(N)N)nc1Cl)C(C)C [EIPA, 5-(N-ethyl-N-isopropyl)amiloride]
- Cytotoxicity (LIVE/DEAD Fixable Cell Stain) (RAW 264.7 macrophages [1]): no cell death
- ox- and ac-LDL internalization (Nile Red fluorescence) [2]: inhibits
- cholesterol efflux in lipid-laden macrophages (RAW 264.7 macrophages [3]): does not promote
- SR-mediated ox-LDL uptake [4]: without inhibiting; also recorded: does not inhibit
- monocyte adhesion to TNFα-treated endothelial cells [5]: does not inhibit
- PMA-induced nLDL macropinocytosis (THP-1 macrophages): blocks macrophage macropinocytosis; also recorded: inhibits
- caveolin-dependent albumin internalization (RAW 264.7 macrophages [6]): without inhibiting; also recorded: does not inhibit
- atherosclerosis (ORO positive area, LCA) (ApoE-/- mice): inhibited atherosclerosis; also recorded: attenuates
- DiI-LDL uptake by F4/80+ macrophages in atherosclerotic arteries [7]: substantially inhibited
